# Data reported in US20230190870A1, “Method for Treating Lysosomal Storage Diseases with Histatin Peptides” (THE BOARD OF TRUSTEES OF THE UNIVERSITY OF ILLINOIS, priority 2020, published 2023).
# Entries after “also recorded” stand apart in the source; their conditions may differ. Square brackets hold non-standard residues; d marks the D form. Peptide text beside a SMILES is read from it. pS = N[C@@H](COP(=O)(O)O)C(=O)O
# Assays:
# [1] = test system: NPC1 (I1061T mutant) homozygous patient fibroblasts; experiment: Cellular calcium in NPC1 (I1061T mutant) patient fibroblasts; assay type: cell-based, human
# [2] = target: T1, TMEM97 (S2R) containing HEK293T membranes (Homo sapiens, UniProt Q5BJF2); experiment: Radioligand binding/competition assay with [3H]-DTG (UNC PDSP); details: secondary radioligand binding assay; hot ligand [3H]-DTG
# T1 construct: expressed in transfected cells; host or cells: HEK293T (transient overexpression; membranes prepared by UNC PDSP)
# [3] = test system: HCE cells; experiment: Wound healing in vitro scratch assay; assay type: cell-based, human
# Protocol: (§1) Transfection/Knock-Down of TMEM97. Sub-confluent monolayers of HCE cells in grown in 35-mm six-well plates were transfected with reaction mixtures composed of 100 pmol of small interfering RNA (siRNA) to TMEM97 (Santa Cruz Biotechnology; Dallas, Tex.) for 48 hours and 5 μL of transfection reagent sold under the tradename LIPOFECTAMINE® 2000 (Invitrogen; Carlsbad, Calif.) in culture medium sold under the tradename OPTI-MEMO media (Gibco Life Technologies; Grand Island, N.Y.). Complexes were incubated for 20 minutes at 24° C. and then added to cells at 37° C. Incubation was continued for 24 to 48 hours at 37° C. in 5% CO2. Knock-down (KD) of TMEM97 was confirmed by western blot analysis using a rabbit anti-TMEM97 antibody (Novus Bio.; Littleton, Colo.).
# Wound Healing in vitro Scratch Assay. HCE cells were cultured in a 96-well plate at 5×10^4 (cells/well) seeding density, and were grown to confluence. Subsequently, a straight line scratch mark was made with a multiscratch wound maker (IncuCyte® 96-well WoundMaker Tool, Essen Biosciences; Ann Arbor, Mich.). The cells were then washed twice with PBS to remove cellular debris. […] The wound areas were measured using ImageJ software (ImageJ 1.47v, NIH, Thornwood; Bethesda, Md.). Relative wound closure was calculated by dividing the closure of the treated wound by that of the untreated control wound. […]
# [4] = test system: HCE cells; experiment: Immunofluorescence imaging of internalization and localization; assay type: cell-based, human
# Protocol: Immunofluorescence Imaging. HCE cells were seeded on glass coverslips (Fisher Scientific Co.; Pittsburgh, Pa.) within a 6-well plate at 3×10^5 (cells/well) seeding density. […] HCE cells were then fixed in 3.7% paraformaldehyde, permeabilized with phosphate-buffered saline (PBS) containing 0.2% TRITON™ X-100 for 5 minutes, and washed three times for 5 minutes each time in PBS. For blocking, cells were and incubated at room temperature for 30 minutes with 5% bovine serum albumin (BSA) and 5% normal goat serum in PBS. For the Endoplasmic Reticulum (ER) staining, a Cytopainter ER staining kit (Abcam; Cambridge, Mass.) was used, following the manufacturer's instructions. After washing with 1×Assay buffer, cells were incubated with Green Detection Reagent to cover the monolayer of cells. For the detection of Hst1 and TMEM97, mouse anti-Hst1 antibody (Abcam; Cambridge, Mass.), rabbit primary antibody against Hst1 (Mybiosource; San Diego, Calif.), and rabbit anti-TMEM97 antibody (Novus Bio.; Littleton, Colo.) were used. Cells were incubated overnight at 4° C. with primary antibodies, washed three times for 5 minutes each time in PBS before incubation with secondary antibodies for 30 minutes. Cells were then counterstained with 1 μg/mL 4′,6-diamidino-2-phenylindole (DAPI) solution in PBS for 3 minutes, then washed three times with PBS containing 0.05% TRITON™ X-100 for 5 minutes each time, twice with PBS for 5 minutes each time, and once with distilled water for 10 seconds. The cells were mounted in Fluoro gel with Tris buffer (Electron Microscopy Sciences; Hatfield, Pa.) and observed under a confocal microscope (Zeiss LSM 710 Confocal Microscope; Oberkochen, Germany) using a 40×objective. Fluorescent dye sold under the tradename ALEXA FLUOR® 488 NHS Ester (Molecular Probes; Carlsbad, Calif.) was used for making Alexa-488 coupled synthetic Hst1.
# as §1, with “Colo.). […]” for “Colo.).”
# [5] = test system: mouse cerebellar tissue (NPC mouse model); experiment: Lipid levels in Hst1-treated NPC mouse cerebellar tissue
# Excerpt: In this respect, in addition to reducing the accumulation of cholesterol in liver tissue, histatin peptides may also be used to alter fatty acid and cholesterol metabolism in neuronal tissue thereby reducing changes associated with neurodegeneration.
# [6] = cyclization of histatin-1; cited from earlier work
smiles,measurement,setting,value
CC(C)C[C@H](NC(=O)[C@H](Cc1ccc(O)cc1)NC(=O)[C@H](CC(N)=O)NC(=O)[C@H](CO)NC(=O)CNC(=O)[C@H](Cc1ccc(O)cc1)NC(=O)[C@H](CC(=O)O)NC(=O)CNC(=O)[C@H](Cc1ccc(O)cc1)NC(=O)[C@H](Cc1ccccc1)NC(=O)[C@@H]1CCCN1C(=O)[C@H](Cc1ccccc1)NC(=O)[C@H](CCC(=O)O)NC(=O)[C@H](CCCNC(=N)N)NC(=O)[C@H](Cc1c[nH]cn1)NC(=O)[C@H](CO)NC(=O)[C@H](Cc1c[nH]cn1)NC(=O)[C@H](Cc1c[nH]cn1)NC(=O)[C@H](CCCCN)NC(=O)[C@H](CCC(=O)O)NC(=O)[C@H](Cc1c[nH]cn1)NC(=O)[C@H](Cc1ccccc1)NC(=O)[C@H](CCCCN)NC(=O)[C@H](CCCNC(=N)N)NC(=O)[C@H](CCCNC(=N)N)NC(=O)[C@H](Cc1ccc(O)cc1)NC(=O)CNC(=O)[C@H](Cc1c[nH]cn1)NC(=O)[C@H](Cc1c[nH]cn1)NC(=O)[C@H](CCCNC(=N)N)NC(=O)[C@H](CCCCN)NC(=O)[C@H](CCC(=O)O)NC(=O)[C@H](Cc1c[nH]cn1)NC(=O)[C@H](COP(=O)(O)O)NC(=O)[C@@H](N)CC(=O)O)C(=O)N[C@@H](Cc1ccc(O)cc1)C(=O)N[C@@H](CC(=O)O)C(=O)N[C@@H](CC(N)=O)C(=O)O [Hst1] (H-D[pS]HEKRHHGYRRKFHEKHHSHREFPFYGDYGSNYLYDN-OH; N-terminus and C-terminus assumed),cellular calcium levels,[1],increased cellular calcium levels
same,Ki,[2],239 nM
same,scratch closure / wound healing rate,"[3]; 20 or 50 μM, 8 and 16 hours, versus untreated control",increases in wound healing rates; also recorded: statistically significant improvement in scratch closure rates
same,wound closure response in TMEM97 KD cells,[3]; siRNA knock-down of TMEM97,abolished this responsiveness; also recorded: loss of this response
same,co-immunolocalization with TMEM97,[4]; exogenously applied Hst1,significant overlap
same,co-localization with endoplasmic reticulum stain,[4]; exogenously applied Hst1,good co-localization
same,internalization and/or localization in TMEM97 KD cells,[4]; siRNA knock-down of TMEM97,significantly disrupted internalization and/or localization
same,"ceramides (Cer NS, HexCer NS, SM)",[5]; 7-week-old NPC mouse model,significantly increasing
same,"gangliosides (GM3, GM2 and GM1)",[5]; 7-week-old NPC mouse model,significantly increasing
same,"phosphatidylinositol 4,5-bisphosphate (PIP2; 20:4/18:0) levels","[5]; NPC1−/− mouse, 9-week-old",significantly decrease
same,potentiation of molar activity by cyclization,[6],approximately 1000 fold
